Test results reported in paper PMC9246096, “Structure-activity relationship studies for inhibitors for vancomycin-resistant Enterococcus and human carbonic anhydrases” (Journal of Enzyme Inhibition and Medicinal Chemistry, 2022).
pKi: −log10 of the molar value. Converted amounts (≈) assume the structure as drawn. “And” between values parts separate entries of the source, which are not always exact repeats. Identical values can stand only once. Like-named read-outs stand apart in the source and are kept apart here.

How the values were obtained:
[1] = biological target: E. faecium γ-CA (Efγ-CA) (Enterococcus faecium, UniProt Q3XX77); assay: biochemical; assay type: biochemical
E. faecium γ-CA (Efγ-CA), sequence (Q3XX77 entry or part of it): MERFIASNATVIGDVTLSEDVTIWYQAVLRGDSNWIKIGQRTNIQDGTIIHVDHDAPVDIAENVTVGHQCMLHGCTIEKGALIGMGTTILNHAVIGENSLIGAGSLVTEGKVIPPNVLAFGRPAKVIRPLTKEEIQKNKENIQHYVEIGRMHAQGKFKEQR
Description: (§1) Both Efα-CA and Efγ-CA were recombinantly expressed and purified as follows. A pHis2 plasmid (GenScript) containing either the Efα-CA sequence or Efγ-CA sequence was used for the expression of hexa-histidine tagged protein in a bacterial culture. […] Starter cultures were grown at 37 °C with shaking at 225 rpm overnight. One litre of autoclaved Luria-Bertani broth containing 100 µg/mL ampicillin and 1 mM ZiCl2 was inoculated with a 10-ml aliquot of the starter culture and grown at 37 °C with shaking at 225 rpm to an OD of 0.8 before being cold shocked and induced with 500 µL of IPTG (1 M). The induced cultures were grown for 16 h at 17 °C with shaking at 225 rpm. Bacterial cell pellets were spun down at 4000 g for 20 min and resuspended in 1× PBS containing 0.5 mM TCEP, 5% glycerol, pH = 7.4 to which 5 mg lysozyme was added to aid in lysis. The resuspended bacterial cells were incubated on ice for 20 min and then lysed via sonication. Lysed bacterial cells were pelleted by centrifugation at 14,000 g for 1 h to remove cellular debris, and the supernatant was loaded onto a nickel-NTA column equilibrated with 1x PBS containing 0.5 mM TCEP, 5% glycerol, pH = 7.4. Once flowthrough was collected, the protein was eluted using a 0–500 mM imidazole stepwise gradient in the same equilibration buffer, and fractions were collected. Fractions that contained the desired protein, as determined by SDS-PAGE, were combined and subjected to TEV protease for His-tag cleavage. After the addition of TEV, the protein was dialysed for 4 h against 1× PBS containing 0.5 mM TCEP, 5% glycerol, pH = 7.4. The dialysed protein solution was loaded back onto a nickel-NTA column equilibrated with 1x PBS containing 0.5 mM TCEP, 5% glycerol, pH = 7.4 for the subtraction of TEV followed by its elution with the same buffer containing 500 mM imidazole. The protein eluted prior to the imidazole was concentrated using Amicon Ultra Centrifugal Filters and purified by size-exclusion chromatography (SEC) on an S100 column using running buffer 1x PBS containing 0.5 mM TCEP, 5% glycerol, pH = 7.4. Fractions that contained the protein of interest as confirmed by SDS-PAGE were concentrated, flash frozen, and placed in −80 °C for future use.
(§2) The assay was performed according to previously published protocols. Recombinant Efα-CA and Efγ-CA was obtained as described above and hCA I and hCA II were purchased from Millipore Sigma (hCA I Catalog# C4396-5MG; hCA II Catalog #C6624-500UG). Ki values were determined from inputting the IC50 values into the Cheng–Prusoff equation[25] for Ki from catalytic inhibition constants.

[2] = biological target: E. faecium α-CA (Efα-CA) (Enterococcus faecium, UniProt Q3XYE8); assay type: biochemical
E. faecium α-CA (Efα-CA), sequence (Q3XYE8 entry or part of it): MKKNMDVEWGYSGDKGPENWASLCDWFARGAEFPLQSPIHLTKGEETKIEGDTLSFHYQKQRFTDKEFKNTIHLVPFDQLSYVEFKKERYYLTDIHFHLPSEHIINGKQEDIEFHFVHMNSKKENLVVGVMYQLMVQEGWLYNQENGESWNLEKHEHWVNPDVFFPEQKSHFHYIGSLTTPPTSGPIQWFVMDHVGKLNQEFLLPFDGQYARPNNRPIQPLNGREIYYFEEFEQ
Description: as §1, §2

[3] = biological target: human CA I (hCAI); design: method as in PMID 24316122; conditions: previously reported; read-out: Ki hCA I; cited from earlier work
[4] = biological target: human CA II (hCAII); design: method as in PMID 24316122; conditions: previously reported; read-out: Ki hCA II; cited from earlier work
[5] = tested on: VRE strains; conditions: full data set published by Kaur et al.; cited from earlier work
[6] = Ki Efγ-CA, recombinant Efγ-CA, Ki from IC50 via Cheng–Prusoff
[7] = read-out: Ki Efα-CA; recombinant Efα-CA; Ki from IC50 via Cheng–Prusoff
[8] = recombinant Efγ-CA, Ki from IC50 via Cheng–Prusoff, read-out: Ki Efγ-CA
[9] = recombinant Efα-CA; Ki from IC50 via Cheng–Prusoff; read-out: Ki Efα-CA

Compound	pKi [1, 6]	pKi [2, 7]	pKi [3]	pKi [1, 8]	pKi [2, 9]	pKi [4]	also measured
CCC(=O)Nc1nnc(S(N)(=O)=O)s1 [Cmpd 1]	6.60	7.43	–	–	–	–	–
CC(C)C(=O)Nc1nnc(S(N)(=O)=O)s1 [Cmpd 2]	6.66	7.63	6.75	–	–	–	–
CC(C)(C)C(=O)Nc1nnc(S(N)(=O)=O)s1 [Cmpd 3]	6.36	7.53	6.78	–	–	–	–
CCCC(=O)Nc1nnc(S(N)(=O)=O)s1 [Cmpd 4]	6.49	7.30	–	–	–	–	–
CC(C)CC(=O)Nc1nnc(S(N)(=O)=O)s1 [Cmpd 5]	–	–	6.67	6.55	7.20	7.25	–
CC(C)(C)CC(=O)Nc1nnc(S(N)(=O)=O)s1 [Cmpd 6]	–	–	6.64	6.41	7.16	8.14	MIC [5]: 0.015 mg/L (≈ 0.0539 µM)
CCCCCCC(=O)Nc1nnc(S(N)(=O)=O)s1 [Cmpd 7]	–	–	6.48	6.20	7.10	7.64	MIC [5]: 0.015 mg/L (≈ 0.0513 µM)
NS(=O)(=O)c1nnc(NC(=O)C2CC2)s1 [Cmpd 8]	–	–	6.80	6.72	7.44	7.61	–
NS(=O)(=O)c1nnc(NC(=O)C2CCC2)s1 [Cmpd 9]	–	–	6.90	6.54	7.57	7.38	–
NS(=O)(=O)c1nnc(NC(=O)C2CCCC2)s1 [Cmpd 10]	–	–	7.12	6.71	8.01	7.58	–
NS(=O)(=O)c1nnc(NC(=O)C2CCCCC2)s1 [Cmpd 11]	6.88	7.31	7.20	–	–	–	–
CC1(C(=O)Nc2nnc(S(N)(=O)=O)s2)CCCCC1 [Cmpd 12]	–	–	6.93	6.62	7.35	7.32	–
CC1CCC(C(=O)Nc2nnc(S(N)(=O)=O)s2)CC1 (stereo not shown) [Cmpd 13]	–	–	6.82	6.46	7.53	7.59	–
NS(=O)(=O)c1nnc(NC(=O)c2ccccc2)s1 [Cmpd 14]	7.02	–	6.96	–	–	–	–
NS(=O)(=O)c1nnc(NC(=O)CC2CC2)s1 [Cmpd 15]	–	–	6.43	6.51	7.93	8.12	–
NS(=O)(=O)c1nnc(NC(=O)CC2CCC2)s1 [Cmpd 16]	–	–	7.11	6.39	7.74	8.31	–
NS(=O)(=O)c1nnc(NC(=O)CC2CCCC2)s1 [Cmpd 17]	–	–	7.06	6.63	7.66	7.71	fold reduced potency against Efα-CA ([2]; compared to matched molecular paired analog 10): about 2 fold
NS(=O)(=O)c1nnc(NC(=O)CC2CCCCC2)s1 [Cmpd 18]	6.52	7.84	7.23	–	–	–	–
NS(=O)(=O)c1nnc(NC(=O)CCC2CCCC2)s1 [Cmpd 19]	–	–	6.72	6.61	7.41	7.99	–
NS(=O)(=O)c1nnc(NC(=O)CCC2CCCCC2)s1 [Cmpd 20]	6.46	–	6.02	–	–	–	MIC [5]: 0.007 mg/L (≈ 0.022 µM)
NS(=O)(=O)c1nnc(NC(=O)CCc2ccccc2)s1 [Cmpd 21]	–	–	6.07	–	–	–	–
NS(=O)(=O)c1nnc(NC(=O)CN2CCCC2)s1 [Cmpd 22]	–	–	7.19	7.03	7.42	7.24	–
NS(=O)(=O)c1nnc(NC(=O)CN2CCCCC2)s1 [Cmpd 23]	–	–	7.27	6.96	7.53	7.68	–
NS(=O)(=O)c1nnc(NC(=O)CN2CCOCC2)s1 [Cmpd 24]	7.25	–	–	–	–	–	–
CN1CCN(CC(=O)Nc2nnc(S(N)(=O)=O)s2)CC1 [Cmpd 25]	7.19	7.09	–	–	–	–	–
CCNc1nnc(S(N)(=O)=O)s1 [Cmpd 26]	6.30	6.78	6.15	–	–	–	–
NS(=O)(=O)c1nnc(NCC2CCCCC2)s1 [Cmpd 27]	6.40	6.93	5.95	–	–	–	–
NS(=O)(=O)c1nnc(NCc2ccccc2)s1 [Cmpd 28]	–	–	5.79	6.55	6.79	–	–
CC(=O)Nc1ncc(S(N)(=O)=O)s1 [Cmpd 29]	–	–	6.33	5.95	6.43	7.01	fold reduction in binding affinity against Efγ-CA ([1]; compared to AZM): 3.5 fold; fold reduction in binding affinity against Efα-CA ([2]; compared to AZM): 6 fold and 7 fold
CC(=O)Nc1ccc(S(N)(=O)=O)cc1 [Cmpd 30]	–	–	5.88	–	–	7.17	pKi ([1]; read-out: Ki Efγ-CA): 6.28; pKi ([2]; read-out: Ki Efα-CA): 6.75
